Data published in patent US10619138B2, “Herbicide-resistant hydroxyphenylpyruvate dioxygenases” (BASF SE, priority 2013, dated 2020).

Experiments:
[1] = test system: Belliella HPPD (SEQ ID NO: 12); experiment: In vitro HPPD activity assay, tolerance index; format: biochemical, Belliella baltica; conditions: normalized on Arabidopsis wild-type HPPD
Protocol: (§1) The activity assay for HPPD is based on the analysis of homogentisic acid by reversed phase HPLC.
(§2) The assay mixture can contain 150 mM potassium phosphate buffer pH 7.0, 50 mM L-ascorbic acid, 100 μM Catalase (Sigma-Aldrich), 1 μM FeSO4 and 0.2 units of purified HPPD enzyme in a total volume of 505 μl. 1 unit is defined as the amount of enzyme that is required to produce 1 nmol of HGA per minute at 20° C.
(§3) The reaction is allowed to proceed for 45 min at room temperature. The reaction is stopped by the addition of 50 μl of 4.5 M phosphoric acid. The sample is filtered using a […] pore size PVDF filtration device.
(§4) 5 μl of the cleared sample is analyzed on an UPLC HSS T3 column (particle size 1.8 μm, dimensions 2.1×50 mm; Waters) by isocratic elution using 90% 20 mM NaH2PO4 pH 2.2, 10% methanol (v/v).
(§5) HGA is detected electrochemically at 750 mV (mode: DC; polarity: positive) and quantified by integrating peak areas (Empower software; Waters).
(§6) Inhibitors are dissolved in DMSO (dimethylsulfoxide) to a concentration of 0.5 mM. From this stock solution serial five-fold dilutions are prepared in DMSO, which are used in the assay. The respective inhibitor solution accounts for 1% of the assay volume. Thus, final inhibitor concentrations range from 5 μM to 320 pM, respectively. Activities are normalized by setting the uninhibited enzyme activity to 100%. IC50 values are calculated using non-linear regression.
(§7) Using methods which are described in the above examples or well known in the art, purified, recombinant wildtype HPPD enzymes are characterized with respect to their kinetic properties and sensitivity towards HPPD inhibiting herbicides. Apparent michaelis constants (Km) and maximal reaction velocities (Vmax) are calculated by non-linear regression with the software GraphPad Prism 5 (GraphPad Software, La Jolla, USA) using a substrate inhibition model. […] Weighted means (by standard error) of Km and IC50 values are calculated from at least three independent experiments. The Cheng-Prusoff equation for competitive inhibition (Cheng, Y. C.; Prusoff, W. H. Biochem Pharmacol 1973, 22, 3099-3108) is used to calculate dissociation constants (Ki).
(§8) Field performance of the HPPD enzyme, which is used as a herbicide tolerance trait may depend not only on its lack of sensitivity towards HPPD inhibiting herbicides but also on its activity. To assess the potential performance of a herbicide tolerance trait a tolerance index (TI) is calculated using the following formula: […]
(§9) Easy comparison and ranking of each trait is enabled by normalizing tolerance indexes on Arabidopsis wild-type HPPD.

[2] = test system: Geodermatophilus HPPD (SEQ ID NO: 32); experiment: In vitro HPPD activity assay, tolerance index; format: biochemical, Geodermatophilus obscurus; conditions: normalized on Arabidopsis wild-type HPPD
Protocol: as §1, §2, §3, §4, §5, §6, §7, §8, §9

[3] = test system: Herpetosiphon HPPD (SEQ ID NO: 26); experiment: In vitro HPPD activity assay, tolerance index; format: biochemical, Herpetosiphon aurantiacus; conditions: normalized on Arabidopsis wild-type HPPD
Protocol: as §1, §2, §3, §4, §5, §6, §7, §8, §9

[4] = test system: Mucilaginibacter HPPD (SEQ ID NO: 28); experiment: In vitro HPPD activity assay, tolerance index; format: biochemical, Mucilaginibacter paludis; conditions: normalized on Arabidopsis wild-type HPPD
Protocol: as §1, §2, §3, §4, §5, §6, §7, §8, §9

[5] = test system: Nitritalea HPPD (SEQ ID NO: 14); experiment: In vitro HPPD activity assay, tolerance index; format: biochemical, Nitritalea halalkaliphila; conditions: normalized on Arabidopsis wild-type HPPD
Protocol: as §1, §2, §3, §4, §5, §6, §7, §8, §9

[6] = test system: Pontibacter HPPD (SEQ ID NO: 16); experiment: In vitro HPPD activity assay, tolerance index; format: biochemical, Pontibacter sp.; conditions: normalized on Arabidopsis wild-type HPPD
Protocol: as §1, §2, §3, §4, §5, §6, §7, §8, §9

[7] = test system: Scenedesmus HPPD (SEQ ID NO: 4); experiment: In vitro HPPD activity assay, tolerance index; format: biochemical, Scenedesmus obliquus; conditions: normalized on Arabidopsis wild-type HPPD
Protocol: as §1, §2, §3, §4, §5, §6, §7, §8, §9

[8] = test system: untransformed wild-type (WT) Arabidopsis plants; experiment: Greenhouse herbicide spray test, wild-type plants; format: in vivo, Arabidopsis thaliana; conditions: two weeks after treatment, mean of three plants
Description: Additionally, T1 and T2 transgenic Arabidopsis plants can be tested for improved tolerance to HPPD-inhibiting herbicides in greenhouse studies. Herbicide injury scoring is done 2-3 weeks after treatment and is rated on a scale of 0 to 100%, 0% being no injury and 100% being complete death.
Transgenic Arabidopsis plants were sprayed with a range of doses from 1.56-50 g/ha with HPPD-inhibiting herbicides and injury evaluations were taken two weeks after treatment. […] As depicted in Table 6, control plants are severely injured by all doses of herbicide applied, with at least 70% of leaf material being damaged at the lowest application rate. For example, transgenic plants expressing Scenedesmus HPPD have an excellent tolerance to all herbidcides tested. […] After application of Inhibitor 2, only 18% of leaf material was damaged resulting in a 5-fold tolerance compared to the WT at the highest application rate.

[9] = test system: Algoriphagus HPPD (SEQ ID NO: 22); experiment: In vitro HPPD activity assay, tolerance index; format: biochemical, Algoriphagus machipongonensis; conditions: normalized on Arabidopsis wild-type HPPD
Protocol: as §1, §2, §3, §4, §5, §6, §7, §8, §9

Row | Structure (SMILES) | TI (normalized tolerance index) [1] | TI (normalized tolerance index) [2] | TI (normalized tolerance index) [3] | TI (normalized tolerance index) [4] | TI (normalized tolerance index) [5] | TI (normalized tolerance index) [6] | TI (normalized tolerance index) [7] | Injury evaluation, scale 0-100% ([8]; 1.56 g/ha) [%] | Injury evaluation, scale 0-100% ([8]; 3.125 g/ha) [%] | Injury evaluation, scale 0-100% ([8]; 6.25 g/ha) [%] | TI (normalized tolerance index) [9] | Injury evaluation, scale 0-100% ([8]; 12.5 g/ha) [%] | Injury evaluation, scale 0-100% ([8]; 25 g/ha) [%] | Injury evaluation, scale 0-100% ([8]; 50 g/ha) [%]
1 | CS(=O)(=O)c1ccc(C(=O)C2C(=O)CCCC2=O)c([N+](=O)[O-])c1 [Inhibitor 2, 2-(4-methylsulfonyl-2-nitro-benzoyl)cyclohexane-1,3-dione] | 0.1 | 0.7 | 0.4 | 0.6 | 0 | 0.1 | 0.1 | 83 | 93 | 93 | – | – | – | –
2 | CN(c1c(Cl)ccc(C2=C(O)c3ncccc3C(C)(C)S2(=O)=O)c1Cl)S(C)(=O)=O [Inhibitor 4, N-[2,6-dichloro-3-(8-hydroxy-5,5-dimethyl-6,6-dioxo-thiopyrano[4,3-b]pyridin-7-yl)phenyl]-N-methyl-methanesulfonamide] | – | – | – | 13.5 | – | 16.4 | – | – | – | – | 132.5 | 75 | 83 | 85
3 | CSc1c(Cl)cc(F)c(C(=O)Nc2nnnn2C)c1Cl [Inhibitor 11, 2,4-dichloro-6-fluoro-3-methylsulfanyl-N-(1-methyltetrazol-5-yl)benzamide] | 0 | 0.2 | 0.2 | 0.2 | 0 | 0 | 0.3 | – | 70 | – | – | 83 | – | –
